For series [1] the following is noted: test period when patient only was taking Zoloft (two months).
From the text: Test objectives; improve cardiovascular and diabetes symptoms through an increased well-being from improved adherence to Zoloft, initiating primarily an improved level of physical activity • b. Follow-up variables: Weight and HbA1c • c. Period of time using the combination product: Five months. • d. Period of time using only the pharmaceutical, i.e. no combination product, prior to the period of using the combination product: Two months • e. Period of time using only the software application, after the period of using the combination product: Two weeks
The individual goal was set-up by the patient by answering the following question: “Give your own personal goal for the physical activity in number of minutes for one week”. • The patient was then asked to continuously answer a question like the following: “I have been exercising the following number of minutes today: [number]”. • Weight/BMI: • The patient was asked to answer a question regarding his/her actual weight. • Depression and Anxiety, respectively: • The patient was asked to register the actual level of perceived depression respectively actual level of perceived anxiety at predefined occasions every second day. It was also possible for the patient to answer the question when he/she wanted. […]
A short description of series [2]: Study 3: Lyrica combination product in generalized anxiety disorder (GAD), perceived symptoms, side effects, quality of life, adherence. As to conditions: Patient 3 (only PP); for Anxiety Daytime / Anxiety Evening/Night / Fatigue / Muscle tension Daytime / Muscle tension Evening/Night: average VAS 0-10; for Dizziness / Dry month / Nausea: frequency of Yes answers; for Quality of Life: average VAS 0-10, 10 = Extremely good. On the procedure:
Three patients participated in the study, where two of them were given the combination product, A+B, and the third was given the PP, A. All three patients were using an evaluation tool in order to capture the continuous data concerning their current health situation. Prior to entering the study none of the patients had used either the PP or the CPP.
Length of study: 2 months.
The two patients using the combination product were evaluated against the one patient using only the PP and being treated according to ordinary health care in Sweden.
Due to the specific and profound study objectives, detailed outcome and behavior during the study period from the patients were evaluated against each other. The measurements of the patient outcomes were evaluated for each patient in different time phases during the treatment period.
In order to measure the appropriate patient outcome, the patients were continuously followed-up. […] The used QFM for the patients in the intervention group, patient 1 and 2: • 1. Set of questions. • 2. Set of functions generating individual and patient specific feedback information. • 3. Feedback based upon the individual patient specific feedback information.
The used set of questions for the patient in the control group, patient 3: • 1. Set of questions similar to the intervention group in order to capture patient reported outcome data • 2. No set of functions. • 3. No feedback information or feedback.
The measured variables (see table 19) were symptom and side effect levels which were perceived estimates by each patient at every measure point. The change in levels of symptoms and side effects between different measured times were used for comparisons. Symptoms and side effects are many times closely related in GAD. In this study anxiety, fatigue, and muscle tension were defined as symptoms while dizziness, nausea, and dry mouth were considered as side effects. This study focused on the overall clinical effect and patient safety aspects therefore it was not crucial to the results if a measured variable could have been defined differently.

For series [3] the following is noted: test period when patient was only taking Metformin (two months).
Method: Follow-up variables: HbA1c • c. Period of time using the combination product: Three months. • d. Period of time using only the pharmaceutical, i.e. no combination product, prior to the period of using the combination product: Two months
Metformin was the following: • Adherence to Metformin: • The patient was asked to answer a question whether or not he/she had been adherent to Metformin, and which dose the patient took; “I have taken my Metformin today with the daily dose of 500 mg/1000 mg/1500 mg/2000 mg/2500 mg or 3000 mg”. • Physical activity: • The patient was asked to continuously answer a question like the following: “I have been exercising the following number of minutes today: [number]”. • Weight/BMI: • The patient was asked to answer a question regarding his/her actual weight. • Blood glucose: • The patient was asked to register his/her measured blood glucose, when he/she had measured it. It was possible for the patient to change or update already registered answers. • HbA1c: • The patient was asked to register his/her HbA1c after it had been measured at a clinic. • A possible adverse event for Metformin: • “Have you experienced unexpected loss of weight, severe nausea or vomiting (malaise), uncontrolled sudden pain when breathing or abdominal? […] Extremely much versus Nothing at all” according to a VAS structure

This note sets out measurements from patent US20150193597A1, “PHARMACEUTICAL PRODUCT AND COMMUNICATION TOOL” (priority 2012, published 2015).

As to `CN[C@H]1CC[C@@H](c2ccc(Cl)c(Cl)c2)c2ccccc21` [Zoloft, Sertralin], in series [1], the HbA1c course result is on record as “remained stable or slightly increased” and the weight gain is 1-2%.

On to `CC(C)C[C@H](CN)CC(=O)O` [A, pregabalin], for which, in series [2] (1st phase), the “Anxiety Daytime” value is listed as 3.5, the “Anxiety Evening/Night” value came out at 2.8, the Fatigue turned out to be 5.4 and the “Muscle tension Daytime” value was 6.3. Moreover, in series [2] (1st phase), the “Muscle tension Evening/Night” value came out at 3.9, the Dizziness is on record as 13%, the Dry month is 0% and the Nausea is on record as 38%. Also, in series [2] (2nd phase), the “Anxiety Daytime” value is given as 3.0, the “Anxiety Evening/Night” value stood at 2.9, the Fatigue worked out at 5.0 and the “Muscle tension Daytime” value was found to be 7.8. In addition, in series [2] (2nd phase), the “Muscle tension Evening/Night” value was determined as 7.4, the Dizziness is reported as 0%, the Dry month stood at 0% and the Nausea turned out to be 11%. For the same compound, in series [2] (2nd vs 1st phase), the “Anxiety Daytime, Change” value is −0.5; the “Anxiety Evening/Night, Change” value was 0.1; the “Dizziness, Change” value is listed as −13 p.p; the “Dry month, Change” value is on record as 0 p.p. Also, in series [2] (2nd vs 1st phase), the “Fatigue, Change” value is −0.4; the “Muscle tension Daytime, Change” value is 1.5; the “Muscle tension Evening/Night, Change” value is 5.5; the “Nausea, Change” value is −27 p.p. Moreover, in series [2] (3rd phase), the “Anxiety Daytime” value was 1.9, the “Anxiety Evening/Night” value is on record as 1.8, the Fatigue is reported as 5.1 and the “Muscle tension Daytime” value came to 7.1. For the same compound, in series [2] (3rd phase), the “Muscle tension Evening/Night” value worked out at 7.2, the Dizziness was 0%, the Dry month came to 0% and the Nausea is recorded as 0%. For the same compound, in series [2] (3rd vs 2nd phase), the “Anxiety Daytime, Change” value is on record as −1.1; the “Anxiety Evening/Night, Change” value is reported as −1.1; the “Dizziness, Change” value was 0 p.p; the “Dry month, Change” value was determined as 0 p.p. Further, in series [2] (3rd vs 2nd phase), the “Fatigue, Change” value worked out at 0.1; the “Muscle tension Daytime, Change” value was −0.7; the “Muscle tension Evening/Night, Change” value is reported as −0.3; the “Nausea, Change” value is reported as −11 p.p. For the same compound, in series [2] (End period), the “Anxiety Daytime” value came out at 2.0, the “Anxiety Evening/Night” value amounted to 2.5, the Fatigue is given as 4.8 and the “Muscle tension Daytime” value was found to be 7.3. For the same compound, in series [2] (End period), the “Muscle tension Evening/Night” value was 7.4, the “Quality of Life” value is 2.5, the Dizziness is listed as 0% and the Dry month was determined as 0%. For the same compound, the Nausea in series [2] (End period) is listed as 0%. Besides, in series [2] (End vs Start period), the “Anxiety Daytime, Change” value was −1.8; the “Anxiety Evening/Night, Change” value came out at 0.1; the “Dizziness, Change” value is −13 p.p; the “Dry month, Change” value worked out at 0 p.p. Also, in series [2] (End vs Start period), the “Fatigue, Change” value is listed as −0.8; the “Muscle tension Daytime, Change” value worked out at 1.4; the “Muscle tension Evening/Night, Change” value is on record as 4.0; the “Nausea, Change” value is −38 p.p. Further, in series [2] (End vs Start period), the “Quality of Life, Change” value is on record as 0.5. Further, in series [2] (Start period), the “Anxiety Daytime” value was determined as 3.8, the “Anxiety Evening/Night” value is given as 2.4, the Fatigue was determined as 5.6 and the “Muscle tension Daytime” value worked out at 5.9. In addition, in series [2] (Start period), the “Muscle tension Evening/Night” value worked out at 3.4, the “Quality of Life” value is on record as 2.0, the Dizziness was 13% and the Dry month was determined as 0%. In addition, the Nausea in series [2] (Start period) is listed as 38%.

Take `CN(C)C(=N)N=C(N)N` [Metformin]: the “increase of HbA1c” value in series [3] is given as 7%.
